Laboratory results published in ChEMBL document CHEMBL1138068 (J Med Chem, 2006).

Columns and labels:
[1] = target: Neuronal acetylcholine receptor subunit alpha-7 (Rattus norvegicus, UniProt Q05941); experiment: Displacement of [125I]alpha-BTX from alpha-7 nAChR in rat hippocampus membrane; type: cell membranes
Cytochrome P450 2D6 = Cytochrome P450 2D6 (Homo sapiens, UniProt P10635); experiment: Inhibition of CYP2D6; type: ADME
[2] = target: Neuronal acetylcholine receptor subunit alpha-7 (Homo sapiens) (UniProt P36544); experiment: Activity at alpha-7 nAChR assessed as stimulation of relative inward current in cultured hippocampal neurons relative to choline; type: functional, tissue-based; conditions: Hippocampus, filed as agonist
Sequence of Neuronal acetylcholine receptor subunit alpha-7 (Homo sapiens) (P36544 whole entry): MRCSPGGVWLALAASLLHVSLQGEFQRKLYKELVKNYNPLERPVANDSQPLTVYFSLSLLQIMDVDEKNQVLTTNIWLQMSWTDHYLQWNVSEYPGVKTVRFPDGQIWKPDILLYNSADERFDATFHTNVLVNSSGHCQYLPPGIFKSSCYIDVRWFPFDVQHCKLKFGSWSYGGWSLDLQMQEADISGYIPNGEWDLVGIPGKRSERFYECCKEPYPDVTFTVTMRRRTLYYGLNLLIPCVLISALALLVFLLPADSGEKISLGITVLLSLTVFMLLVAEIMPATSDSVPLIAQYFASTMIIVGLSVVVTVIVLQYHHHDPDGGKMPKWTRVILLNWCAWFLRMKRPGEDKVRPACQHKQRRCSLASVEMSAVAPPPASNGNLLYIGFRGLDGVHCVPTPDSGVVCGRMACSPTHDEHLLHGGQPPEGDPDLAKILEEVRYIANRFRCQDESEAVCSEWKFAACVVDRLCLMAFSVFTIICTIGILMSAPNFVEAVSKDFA

Sequence of Cytochrome P450 2D6 (P10635 whole entry): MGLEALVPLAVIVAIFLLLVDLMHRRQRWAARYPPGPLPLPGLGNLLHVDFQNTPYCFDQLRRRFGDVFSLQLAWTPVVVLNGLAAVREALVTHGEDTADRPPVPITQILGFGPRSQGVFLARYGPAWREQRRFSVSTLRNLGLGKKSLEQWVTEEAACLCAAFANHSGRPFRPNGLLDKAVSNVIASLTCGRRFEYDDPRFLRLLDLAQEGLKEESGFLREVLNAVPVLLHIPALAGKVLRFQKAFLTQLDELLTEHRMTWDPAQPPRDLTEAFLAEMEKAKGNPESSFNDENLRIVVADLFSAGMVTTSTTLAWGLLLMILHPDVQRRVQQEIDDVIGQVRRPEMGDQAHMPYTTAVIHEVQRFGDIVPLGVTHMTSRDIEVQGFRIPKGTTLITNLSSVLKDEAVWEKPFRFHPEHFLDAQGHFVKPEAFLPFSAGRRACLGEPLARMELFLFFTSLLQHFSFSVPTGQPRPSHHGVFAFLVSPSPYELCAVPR
Sequence of Neuronal acetylcholine receptor subunit alpha-7 (Q05941 whole entry): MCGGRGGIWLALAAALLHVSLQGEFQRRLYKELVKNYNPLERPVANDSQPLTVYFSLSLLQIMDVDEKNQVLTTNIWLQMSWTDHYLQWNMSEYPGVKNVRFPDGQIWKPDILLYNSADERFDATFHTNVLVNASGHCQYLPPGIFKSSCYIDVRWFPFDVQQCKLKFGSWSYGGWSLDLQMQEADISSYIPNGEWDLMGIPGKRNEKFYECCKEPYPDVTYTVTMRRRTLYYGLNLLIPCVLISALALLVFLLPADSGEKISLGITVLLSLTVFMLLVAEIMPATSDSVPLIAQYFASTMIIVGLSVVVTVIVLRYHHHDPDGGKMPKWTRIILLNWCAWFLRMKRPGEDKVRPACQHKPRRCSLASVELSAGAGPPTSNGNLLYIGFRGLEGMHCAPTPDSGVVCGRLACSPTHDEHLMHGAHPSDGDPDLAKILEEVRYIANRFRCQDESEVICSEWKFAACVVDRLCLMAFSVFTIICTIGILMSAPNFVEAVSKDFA

O=C1O[C@]2(CN3CCC2CC3)CN1c1ccc2sc(Cl)cc2c1
Ki [1]: 34 nM
IC50 (Cytochrome P450 2D6): > 30000 nM

O=C1O[C@]2(CN3CCC2CC3)CN1c1ccc2c(c1)CCO2
Ki [1]: 85 nM

Cn1c(=O)oc2cc(N3CC4(CN5CCC4CC5)OC3=O)ccc21 (single isomer, unassigned)
IC50 [1]: > 1000 nM

O=C1O[C@]2(CN3CCC2CC3)CN1c1ccc2occc2c1
Ki [1]: 19 nM
IC50 (Cytochrome P450 2D6): > 30000 nM
Activity [2]: Agonist

Cc1cc2cc(N3C[C@@]4(CN5CCC4CC5)OC3=O)ccc2s1
IC50 (Cytochrome P450 2D6): > 30000 nM

O=C1O[C@]2(CN3CCC2CC3)CN1c1ccc2ccoc2c1
Ki [1]: 50 nM
